# From PubChem BioAssay AID1919013 (Molecular Pharmacology Branch, DTP, NCI, 2023)
# Where “and” joins values, the source holds several entries; their conditions need not be identical. Identical values can stand only once.
# Test system: LG0703-F498-PDC complex spheroid growth
# Experiment: Anticancer human tumor LG0703-F498-PDC patient-derived lung adenocarcinoma cell line growth inhibition [AhR]
# Details: for viability, T/C: stronger effect = lower value
# Excerpt: Multicellular complex tumor spheroid response to aryl hydrocarbon receptor antagonists in combination with a variety of drugs and investigational agents in selected tumor cell lines
# The current study was undertaken to assess response to aryl hydrocarbon receptor antagonists in combination with standard-of-care drugs and investigational agents in solid tumor complex spheroid models. Complex spheroids include a stromal component modeled by human endothelial cells (HUVEC) and fibroblasts modeled by human mesenchymal stem cells (MSCs). The concentration ranges selected for each drug and investigational agent were based upon clinically achievable concentrations if the clinical Cmax of the agent was known.
# Compounds. The drugs and investigational agents: BAY 2416964 (NSC825713), GNF351 (NSC835774), CH-223191 (NSC835775), CPI-455 (NSC825282), aza-TdCyd (NSC777586), decitabine (NSC127716), belinostat (NSC758774), entinostat (NSC756642), pevonedistat (NSC761192), tazemetostat (NSC777109), talazoparib (NSC765396), olaparib (NSC753686), selinexor (NSC780203), nedisertib (M3814, NSC802822), bortezomib (NSC756655), venetoclax (NSC766270), doxorubicin (NSC123127), elimusertib (BAY189344, NSC800525), ceralasertib (AZD6738, NSC777638), TAK-243 (NSC785004), alisertib (NSC759677), etoposide (NSC141540), topotecan (NSC609699), eribulin (NSC707389), gemcitabine (NSC613327), carboplatin (NSC241240), cisplatin (NSC119875), and SN-38 (NSC673596) were obtained from the National Cancer Institute (NCI) Developmental Therapeutics Program Chemical Repository (32). The FDA-approved anticancer drug set is available from the Developmental Therapeutics Program at https://dtp.cancer.gov/organization/dscb/obtaining/available plates.htm. […] The stock solutions were prepared in dimethyl sulfoxide (DMSO, Sigma-Aldrich, St. Louis, MO, cat. D2650), except for the platinum compounds which were prepared in saline (Quality Biological, Gaithersburg, MD, cat. 114-055-101), at 800-fold the tested concentration and stored at -70 degrees C prior to their use. All drugs and investigational agents were tested over a range starting from a high concentration at or near the clinical Cmax and decreasing in half-log increments. If the clinical Cmax for an agent had not been determined, the highest concentration tested was 10 microM (Table 1).
# Cell Culture. All cells were maintained in an incubator at 37 degrees C and 5% CO2 with 95% humidity. The PDC lines were cultured according to standard operating procedures established by the NCI PDMR (https://pdmr.cancer.gov). Briefly, all PDCs were thawed and cultured in Matrigel-coated flasks prepared with a working solution of 1X Ham's F-12 nutrient mix, without supplementation (Invitrogen, Waltham, MA, cat. 11765054), 100 U/mL penicillin-streptomycin (Invitrogen, cat. 15140122), and 2.5% Matrigel (Corning Inc., Corning, NY, cat. 354248) for the first three passages. All PDCs were cultured in complete DMEM/F-12 media containing advanced DMEM/F-12 (Invitrogen, cat. 12634028), 4.9% defined fetal bovine serum, heat inactivated (HyClone Laboratories Inc., Logan, UT, cat. SH30070.03HI), 389 ng/mL hydrocortisone (Sigma-Aldrich, cat. H4001), 9.7 ng/mL human EGF recombinant protein (Invitrogen, cat. PHG0313), 23.4 microg/mL adenine (Sigma-Aldrich, cat. A2786), 97.3 U/mL penicillin-streptomycin (Invitrogen, cat. 15140122), 1.9 mM L-glutamine (Invitrogen, cat. 25030081), and 9.7 microM Y-27632 dihydrochloride (Tocris Bioscience, Bristol, United Kingdom, cat. 1254). The PDCs were cultured in complete DMEM/F12 media without 10 microM Y-27632 dihydrochloride for at least two passages prior to the screen. The established cell lines NCI-H1341 and […] were cultured in DMEM/F-12, HEPES (Invitrogen, cat. 11330032), 5% defined fetal bovine serum (HyClone Laboratories Inc., cat. SH30070.03), ITS premix universal culture supplement [insulin (5 microg/mL), transferrin (5 microg/mL), and selenious acid (5 ng/mL)] […]
# [1] = curve of first compound, second compound 0.1 µM
# [2] = curve of first compound, second compound 0.316 µM
# [3] = curve of first compound, second compound 1 µM
# [4] = curve of first compound, second compound 3.16 µM
# [5] = curve of first compound, second compound 10 µM
# [6] = second compound 0.1 µM, first compound 0.000949 µM
# [7] = second compound 0.1 µM, first compound 0.003 µM
# [8] = second compound 0.1 µM, first compound 0.00949 µM
# [9] = second compound 0.1 µM, first compound 0.03 µM
# [10] = second compound 0.1 µM, first compound 0.0949 µM
# [11] = second compound 0.1 µM, first compound 0.3 µM
# [12] = second compound 0.316 µM, first compound 0.000949 µM
# [13] = second compound 0.316 µM, first compound 0.003 µM
# [14] = second compound 0.316 µM, first compound 0.00949 µM
# [15] = second compound 0.316 µM, first compound 0.03 µM
# [16] = second compound 0.316 µM, first compound 0.0949 µM
# [17] = second compound 0.316 µM, first compound 0.3 µM
# [18] = second compound 1 µM, first compound 0.000949 µM
# [19] = second compound 1 µM, first compound 0.003 µM
# [20] = second compound 1 µM, first compound 0.00949 µM
# [21] = second compound 1 µM, first compound 0.03 µM
# [22] = second compound 1 µM, first compound 0.0949 µM
# [23] = second compound 1 µM, first compound 0.3 µM
# [24] = second compound 3.16 µM, first compound 0.000949 µM
# [25] = second compound 3.16 µM, first compound 0.003 µM
# [26] = second compound 3.16 µM, first compound 0.00949 µM
# [27] = second compound 3.16 µM, first compound 0.03 µM
# [28] = second compound 3.16 µM, first compound 0.0949 µM
# [29] = second compound 3.16 µM, first compound 0.3 µM
# [30] = second compound 10 µM, first compound 0.000949 µM
# [31] = second compound 10 µM, first compound 0.003 µM
# [32] = second compound 10 µM, first compound 0.00949 µM
# [33] = second compound 10 µM, first compound 0.03 µM
# [34] = second compound 10 µM, first compound 0.0949 µM
# [35] = second compound 10 µM, first compound 0.3 µM
# 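Further: luminescence taken as a proxy for viable cell amount.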
# 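Wherever viability, T/C is given: percent of DMSO vehicle control where 100% means growth equal to vehicle.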
smiles,measurement,setting,value
CCc1c2c(nc3ccc(O)cc13)-c1cc3c(c(=O)n1C2)COC(=O)[C@]3(O)CC + Cc1cncc(-c2nc(NCCc3c[nH]c4ccccc34)c3ncn(C(C)C)c3n2)c1,IC50,[1],15.3 nM
same,IC50,[2],11.1 nM
same,IC50,[3],11.9 nM
same,IC50,[4],< 0.949 nM
same,IC50,[5],< 0.949 nM
same,"viability, T/C",[6],102%
same,"viability, T/C",[7],82.4%
same,"viability, T/C",[8],55.5%
same,"viability, T/C",[9],39.3%
same,"viability, T/C",[10],29.1%
same,"viability, T/C",[11],19.2%
same,"viability, T/C",[12],92.1%
same,"viability, T/C",[13],72.4%
same,"viability, T/C",[14],51.2%
same,"viability, T/C",[15],37.1%
same,"viability, T/C",[16],25.2%
same,"viability, T/C",[17],18.3%
same,"viability, T/C",[18],80.5%
same,"viability, T/C",[19],76.5%
same,"viability, T/C",[20],49.7%
same,"viability, T/C",[21],35.7%
same,"viability, T/C",[22],22.1%
same,"viability, T/C",[23],13.6%
same,"viability, T/C",[24],44.5%
same,"viability, T/C",[25],37.7%
same,"viability, T/C",[26],33%
same,"viability, T/C",[27],29.1%
same,"viability, T/C",[28],16.3%
same,"viability, T/C",[29],11.9%
same,"viability, T/C",[30],1.16%
same,"viability, T/C",[31],1.16%
same,"viability, T/C",[32],2.25%
same,"viability, T/C",[33],1.82%
same,"viability, T/C",[34],1.25%
same,"viability, T/C",[35],1.61%
CC[C@@]1(O)C(=O)OCc2c1cc1n(c2=O)Cc2cc3c(CN(C)C)c(O)ccc3nc2-1 + Cc1cncc(-c2nc(NCCc3c[nH]c4ccccc34)c3ncn(C(C)C)c3n2)c1,IC50,[1],> 100 nM
same,IC50,[2],> 100 nM
same,IC50,[3],> 100 nM
same,IC50,[4],29.8 nM
same,IC50,[5],< 0.316 nM
same,"viability, T/C","second compound 0.1 µM, first compound 0.000316 µM",96.8%
same,"viability, T/C","second compound 0.1 µM, first compound 0.001 µM",99.7%
same,"viability, T/C","second compound 0.1 µM, first compound 0.00316 µM",100%
same,"viability, T/C","second compound 0.1 µM, first compound 0.01 µM",89.2%
same,"viability, T/C","second compound 0.1 µM, first compound 0.0316 µM",78.6%
same,"viability, T/C","second compound 0.1 µM, first compound 0.1 µM",63.7%
same,"viability, T/C","second compound 0.316 µM, first compound 0.000316 µM",93%
same,"viability, T/C","second compound 0.316 µM, first compound 0.001 µM",105%
same,"viability, T/C","second compound 0.316 µM, first compound 0.00316 µM",102%
same,"viability, T/C","second compound 0.316 µM, first compound 0.01 µM",87.5%
same,"viability, T/C","second compound 0.316 µM, first compound 0.0316 µM",63.9%
same,"viability, T/C","second compound 0.316 µM, first compound 0.1 µM",55.4%
same,"viability, T/C","second compound 1 µM, first compound 0.000316 µM",97.5%
same,"viability, T/C","second compound 1 µM, first compound 0.001 µM",101%
same,"viability, T/C","second compound 1 µM, first compound 0.00316 µM",101%
same,"viability, T/C","second compound 1 µM, first compound 0.01 µM",90.6%
same,"viability, T/C","second compound 1 µM, first compound 0.0316 µM",73%
same,"viability, T/C","second compound 1 µM, first compound 0.1 µM",50.2%
same,"viability, T/C","second compound 3.16 µM, first compound 0.000316 µM",56.9%
same,"viability, T/C","second compound 3.16 µM, first compound 0.001 µM",67.9%
same,"viability, T/C","second compound 3.16 µM, first compound 0.00316 µM",56.6%
same,"viability, T/C","second compound 3.16 µM, first compound 0.01 µM",57.6%
same,"viability, T/C","second compound 3.16 µM, first compound 0.0316 µM",48%
same,"viability, T/C","second compound 3.16 µM, first compound 0.1 µM",38.3%
same,"viability, T/C","second compound 10 µM, first compound 0.000316 µM",1.34%
same,"viability, T/C","second compound 10 µM, first compound 0.001 µM",2.04%
same,"viability, T/C","second compound 10 µM, first compound 0.00316 µM",1.13%
same,"viability, T/C","second compound 10 µM, first compound 0.01 µM",1.73%
same,"viability, T/C","second compound 10 µM, first compound 0.0316 µM",1.21%
same,"viability, T/C","second compound 10 µM, first compound 0.1 µM",2.28%
CC(C)CC(NC(=O)C(Cc1ccccc1)NC(=O)c1cnccn1)B(O)O (configuration not stated),"viability, T/C",compound 0.000949 µM,99.7% and 97.7% and 92.7%
same,"viability, T/C",compound 0.003 µM,69.5% and 94.8% and 48.4%
same,"viability, T/C",compound 0.00949 µM,6.8% and 9.74% and 2.07%
same,"viability, T/C",compound 0.03 µM,0.44% and 0.8% and 0.23%
same,"viability, T/C",compound 0.0949 µM,0.15% and 0.2% and 0.16%
same,"viability, T/C",compound 0.3 µM,0.19% and 0.35% and 0.18%
same,IC50,curve of compound,4.29 nM and 5.5 nM and 2.88 nM
CCc1c2c(nc3ccc(O)cc13)-c1cc3c(c(=O)n1C2)COC(=O)[C@]3(O)CC + CC(CO)NC(=O)c1cc(-c2ccc(Cl)cc2)nn(-c2cnn(C)c2)c1=O,IC50,[1],47.4 nM
same,IC50,[2],24.4 nM
same,IC50,[3],28.3 nM
same,IC50,[4],19.8 nM
same,IC50,[5],15.7 nM
same,"viability, T/C",[6],96.2%
same,"viability, T/C",[7],84.6%
same,"viability, T/C",[8],69.7%
same,"viability, T/C",[9],54%
same,"viability, T/C",[10],44%
same,"viability, T/C",[11],26.3%
same,"viability, T/C",[12],82.8%
same,"viability, T/C",[13],94.1%
same,"viability, T/C",[14],62.5%
same,"viability, T/C",[15],46.9%
same,"viability, T/C",[16],36.9%
same,"viability, T/C",[17],24.3%
same,"viability, T/C",[18],79%
same,"viability, T/C",[19],75.6%
same,"viability, T/C",[20],67.8%
same,"viability, T/C",[21],48.9%
same,"viability, T/C",[22],32.6%
same,"viability, T/C",[23],26%
same,"viability, T/C",[24],72.7%
same,"viability, T/C",[25],73.2%
same,"viability, T/C",[26],58.5%
same,"viability, T/C",[27],45.6%
same,"viability, T/C",[28],27.8%
same,"viability, T/C",[29],22.5%
same,"viability, T/C",[30],72%
same,"viability, T/C",[31],74%
same,"viability, T/C",[32],56.5%
same,"viability, T/C",[33],40.5%
same,"viability, T/C",[34],26.4%
same,"viability, T/C",[35],24.5%
